Legend:
Format in all cases: in vivo
Plutella xylostella = test: Leaf dip method (cabbage leaves) against Plutella xylostella (Example C); conditions: single compound, 72 h
Method: The leaf dip method was used, wherein the required quantity of the compound or respective compound combinations were weighed and dissolved in a test solution prepared in tubes. The tubes were put on a vortex at 2000 rpm for 90 min for proper mixing and then the test solutions were diluted with 0.01% Triton-X to the desired test concentration. Cabbage leaves were dipped into the solution for 10 seconds, shade dried for 20 min and then transferred to single cells of bioassay trays. A single second instar larva was released into each cell and the tray was covered with a lid. The bio-assay trays were kept under laboratory conditions at a temperature of 25° C. and relative humidity of 70%. Observations on dead, moribund and live larvae were recorded 72 h after the release. Percent mortality was calculated by combining dead and moribund larvae and comparing the result with the one of the untreated control. The results are shown for compound of formula (I-III) in Table C.

Spodoptera litura = test: Diet incorporation method against Spodoptera litura (Example B); conditions: single compound, 96 h
Method: The diet incorporation method was used, in which semi-synthetic diet was incorporated into the test solution consisting either of the single compound or respective compound combinations, when the temperature was approximately 50° C. in the bioassay containers, then stirred thoroughly for proper mixing and allowed to cool for 30 min. The solidified diet was cut into equal pieces, and then each piece was transferred into one cell of the bio-assay trays. A single starved third instar larva was released into each of these cells of the bio-assay trays and the tray was covered with a lid. The bio-assay trays were kept under laboratory conditions at a temperature of 25° C. and relative humidity of 70%. Observations on dead, moribund and live larvae were recorded 96 h after the release. Percent mortality was calculated by combining dead and moribund larvae and comparing the result with the one of the untreated control. The results are shown for the compound of formula (I-III) in Table B.

Helicoverpa armigera = test: Diet incorporation method against Helicoverpa armigera (Example A); conditions: single compound, 96 h
Method: The diet incorporation method was used, in which semi-synthetic diet was incorporated into the test solutions consisting either of the single compounds or respective compound combinations, when the temperature was approximately 50° C. in the bio-assay containers, then stirred thoroughly for proper mixing and allowed to cool for 30 min. The solidified diet was cut into equal pieces, and then each piece was transferred into one cell of a bio-assay tray. A single starved third instar larva was released into each of these cells of the bio-assay trays and the tray was covered with a lid. The bio-assay trays were kept under laboratory conditions at a temperature of 25° C. and relative humidity of 70%. Observations on dead, moribund and live larvae were recorded 96 h after the release of the larvae. Percent mortality was calculated by combining dead and moribund larvae and comparing the result to the one of the untreated control. The results are shown for the compound of formula (I-III) in Table A.

Phakopsora pachyrhizi = test: Preventive glasshouse test against Phakopsora pachyrhizi in soybean (Example H); conditions: single compound
Method: The single compounds or the respective compound combinations were dissolved in 2% dimethyl sulfoxide/acetone and then mixed with water containing an emulsifier to a calibrated spray volume of 50 ml. The test solutions were poured into spray bottles for further applications.
To test the preventive activity of compounds, healthy young Soybean plants, raised in the greenhouse, were sprayed with the active compound preparation at the stated application rates inside the spray cabinets using hollow cone nozzles. One day after treatment, the plants were inoculated with a suspension containing 2×10^5 Phakopsora pachyrhizi conidia. The inoculated plants were then kept in a greenhouse chamber at a temperature of 22-24° C. and 80-90% relative humidity for disease expression.
A visual assessment of the performance of the single compounds and respective compound combinations was carried out by rating the disease severity (0-100% scale) on treated plants 3, 7, 10 and 15 days after application. Efficacy (% control) of the compounds was calculated by comparing the disease rating in the treatment with the one of the untreated control. The compounds were also assessed for their plant compatibility by recording symptoms like necrosis, chlorosis and stunting. The results have been described for the compound of formula (I-III) in Table H.

Alternaria solani = test: Preventive glasshouse test against Alternaria solani in tomato (Example G); conditions: single compound
Method: The single compounds or respective compound combinations were dissolved in 2% dimethyl sulfoxide/acetone and then mixed with water containing emulsifier to a calibrated spray volume of 50 mL. The test solutions were poured into spray bottles for further applications.
To test the preventive activity, healthy young tomato plants, raised in the greenhouse, were sprayed with the active compound preparation at the stated application rates inside the spray cabinets using hollow cone nozzles. One day after treatment, the plants were inoculated with a spore suspension containing 0.24×10^6 Alternaria solani inoculum and 2% Malt. The inoculated plants were then kept in a greenhouse chamber at a temperature of 22-24° C. and 90-95% relative humidity for disease expression.
A visual assessment of the performance of the single compounds or compound combinations was carried out by rating the disease severity (0-100% scale) on treated plants 3, 7, 10 and 15 days after application. Efficacy (% control) of the single compounds and mixtures was calculated by comparing the disease rating in the treatment with the one of the untreated control. The compounds were also assessed for their plant compatibility by recording symptoms like necrosis, chlorosis and stunting. The results have been described for the compound of formula (I-III) in Table G.

Erysiphe cichoracearum = test: Preventive glasshouse test against Erysiphe cichoracearum in cucumber (Example K); conditions: single compound, Conc. 100 ppm
Method: The single compounds or the respective compound combinations were dissolved in 2% dimethyl sulfoxide/acetone and then mixed with water containing emulsifier to a calibrated spray volume of 50 mL. The test solutions were poured into spray bottles for further applications.
To test the preventive activity of compounds, healthy young cucumber plants, raised in the greenhouse, were sprayed with the active compound preparation at the stated application rates inside the spray cabinets using hollow cone nozzles. One day after treatment, the plants were inoculated with a conidial suspension containing 2×10^5 Erysiphe cichoracearum inoculum. The inoculated plants were then kept in a greenhouse chamber at a temperature of 22-24° C. and 50-60% relative humidity for disease expression.
A visual assessment of the performance of the compounds and the respective compound combinations was carried out by rating the disease severity (0-100% scale) on treated plants 3, 7, 10 and 15 days after application. Efficacy (% control) of the single compounds or compound combinations was calculated by comparing the disease rating in the treatment with the one of the untreated control. The compounds were also assessed for their plant compatibility by recording symptoms like necrosis, chlorosis and stunting. The results have been described for the compound of formula (I-III) in Table K.

[1] = Spodoptera litura, 100 ppm, read-out: Observed Efficacy (%)
[2] = Helicoverpa armigera, 100 ppm, read-out: Observed Efficacy (%)
[3] = Spodoptera litura, read-out: Observed Efficacy (%)

## CC(COc1ccc(Oc2ccccc2)cc1)Oc1ccccn1 (stereo not shown) [Pyriproxyfen]
Plutella xylostella; 0.05 ppm
  Observed Efficacy (%): 12.5%
Plutella xylostella; 0.1 ppm
  Observed Efficacy (%): 25%
Plutella xylostella; 1 ppm
  Observed Efficacy (%): 12.5%

## Spinosad
Spodoptera litura; 0.2 ppm
  Observed Efficacy (%): 0%
Helicoverpa armigera; 0.2 ppm
  Observed Efficacy (%): 12.5%

## Spinetoram
Plutella xylostella; 0.05 ppm
  Observed Efficacy (%): 62.5%
Helicoverpa armigera; 0.5 ppm
  Observed Efficacy (%): 25%

## CN1COCN(Cc2cnc(Cl)s2)/C1=N\[N+](=O)[O-] [Thiamethoxam]
Plutella xylostella; 1 ppm
  Observed Efficacy (%): 12.5%
Spodoptera litura; Spodoptera litura, 50 ppm, read-out: Observed Efficacy (%)
  pest or weed control at 50 ppm: 0%
Spodoptera litura; [1]
  pest or weed control at 100 ppm: 0%
Helicoverpa armigera; [2]
  pest or weed control at 100 ppm: 25%

## CCS(=O)(=O)c1cccnc1-c1nc2cc(S(=O)(=O)C(F)(F)F)ccc2o1 [Oxazosulfyl, 2-[3-(ethanesulfonyl)pyridin-2-yl]-5-[trifluoro(methanesulfonyl)]-1,3-benzoxazole]
Plutella xylostella; 0.1 ppm
  Observed Efficacy (%): 0%
Helicoverpa armigera; [2]
  pest or weed control at 100 ppm: 12.5%

## CON=CNC(=O)c1ccc(C2=NOC(c3cc(Cl)cc(Cl)c3)(C(F)(F)F)C2)cc1C (stereo not shown) [Fluxametamid]
Plutella xylostella; 0.05 ppm
  Observed Efficacy (%): 0%
Plutella xylostella; 0.1 ppm
  Observed Efficacy (%): 0%

## N#Cc1c[nH]cc1-c1cccc2c1OC(F)(F)O2 [Fludioxonil]
Spodoptera litura; [1]
  pest or weed control at 100 ppm: 37.5%
Spodoptera litura; [3]
  pest or weed control at 200 ppm: 25%
Phakopsora pachyrhizi; 2.0 ppm
  Observed Efficacy (%): 19%
Phakopsora pachyrhizi; 10.0 ppm
  Observed Efficacy (%): 28%

## COC(=O)N(C(=O)N1CO[C@@]2(C(=O)OC)Cc3cc(Cl)ccc3C2=N1)c1ccc(OC(F)(F)F)cc1 [Indoxacarb]
Spodoptera litura; 0.1 ppm
  Observed Efficacy (%): 0%
Helicoverpa armigera; 0.1 ppm
  Observed Efficacy (%): 0%

## CN/C(=N\[N+](=O)[O-])NCc1cnc(Cl)s1 [Clothianidin]
Spodoptera litura; Spodoptera litura, 20 ppm, read-out: Observed Efficacy (%)
  pest or weed control at 20 ppm: 0%
Helicoverpa armigera; Helicoverpa armigera, 10 ppm, read-out: Observed Efficacy (%)
  pest or weed control at 10 ppm: 12.5%
Helicoverpa armigera; Helicoverpa armigera, 20 ppm, read-out: Observed Efficacy (%)
  pest or weed control at 20 ppm: 25%

## CCN(C(=O)CCSCCC(F)(F)F)c1cn(-c2cccnc2)nc1Cl [Tyclopyrazoflor]
Plutella xylostella; 0.1 ppm
  Observed Efficacy (%): 0%
Spodoptera litura; 100 ppm
  Observed Efficacy (%): 0%

## Emamectin benzoate
Spodoptera litura; 0.05 ppm
  Observed Efficacy (%): 12.5%
Spodoptera litura; 0.1 ppm
  Observed Efficacy (%): 25%
Helicoverpa armigera; 0.1 ppm
  Observed Efficacy (%): 12.5%

## Cc1c(COC(=O)[C@@H]2[C@H](/C=C(\Cl)C(F)(F)F)C2(C)C)cccc1-c1ccccc1 (racemic) [Bifenthrin]
Plutella xylostella; 0.5 ppm
  Observed Efficacy (%): 12.5%
Plutella xylostella; 1 ppm
  Observed Efficacy (%): 25%
Helicoverpa armigera; Helicoverpa armigera, 1 ppm, read-out: Observed Efficacy (%)
  pest or weed control at 1 ppm: 0%

## COC(=O)NC(=S)Nc1ccccc1NC(=S)NC(=O)OC [Thiophanate-methyl]
Spodoptera litura; [1]
  pest or weed control at 100 ppm: 0%
Spodoptera litura; [3]
  pest or weed control at 200 ppm: 0%
  pest or weed control at 500 ppm: 0%
Alternaria solani; 10 ppm
  Observed Efficacy (%): 36%
Alternaria solani; 50 ppm
  Observed Efficacy (%): 36%
Helicoverpa armigera; [2]
  pest or weed control at 100 ppm: 0%
Helicoverpa armigera; Helicoverpa armigera, 200 ppm, read-out: Observed Efficacy (%)
  pest or weed control at 200 ppm: 0%
Helicoverpa armigera; Helicoverpa armigera, 500 ppm, read-out: Observed Efficacy (%)
  pest or weed control at 500 ppm: 0%

## CN(C(=O)c1ccccc1)c1cccc(C(=O)Nc2c(Br)cc(C(F)(C(F)(F)F)C(F)(F)F)cc2C(F)(F)F)c1F [Broflanilide]
Spodoptera litura; 0.05 ppm
  Observed Efficacy (%): 0%
Helicoverpa armigera; 0.05 ppm
  Observed Efficacy (%): 0%
Helicoverpa armigera; 0.1 ppm
  Observed Efficacy (%): 12.5%

## CC1=NNC(=O)N(/N=C/c2cccnc2)C1 [Pymetrozine]
Plutella xylostella; 0.01 ppm
  Observed Efficacy (%): 0%
Plutella xylostella; 0.05 ppm
  Observed Efficacy (%): 0%
Plutella xylostella; 1 ppm
  Observed Efficacy (%): 12.5%

## COCC(=O)N(c1c(C)cccc1C)C(C)C(=O)OC (stereo not shown) [Metalaxyl]
Spodoptera litura; [3]
  pest or weed control at 200 ppm: 0%
  pest or weed control at 500 ppm: 0%
Erysiphe cichoracearum
  Observed Efficacy (%): 31%
Alternaria solani; 50 ppm
  Observed Efficacy (%): 22%
Alternaria solani; 100 ppm
  Observed Efficacy (%): 22%

## O=[N+]([O-])NC1=NCCN1Cc1ccc(Cl)nc1 [Imidacloprid]
Plutella xylostella; 0.1 ppm
  Observed Efficacy (%): 0%
Spodoptera litura; [1]
  pest or weed control at 100 ppm: 0%
Helicoverpa armigera; Helicoverpa armigera, 50 ppm, read-out: Observed Efficacy (%)
  pest or weed control at 50 ppm: 0%

## N#Cc1ccc(CC(=NNC(=O)Nc2ccc(OC(F)(F)F)cc2)c2cccc(C(F)(F)F)c2)cc1 (mixture of isomers) [Metaflumizone]
Plutella xylostella; 0.01 ppm
  Observed Efficacy (%): 25%
Plutella xylostella; 0.1 ppm
  Observed Efficacy (%): 0%

## N#Cc1nn(-c2c(Cl)cc(C(F)(F)F)cc2Cl)c(N)c1[S+]([O-])C(F)(F)F (stereo not shown) [Fipronil]
Plutella xylostella; 0.001 ppm
  Observed Efficacy (%): 0%

## CCN(C(=O)c1cnn(C(C)C(C)C)c1C)c1ccnnc1 (stereo not shown) [Dimpropyridaz]
Plutella xylostella; 0.1 ppm
  Observed Efficacy (%): 12.5%
Spodoptera litura; 100 ppm
  Observed Efficacy (%): 0%

## CCN1OCC(NC(=O)c2ccc(C3=NOC(c4cc(Cl)c(F)c(Cl)c4)(C(F)(F)F)C3)cc2C)C1=O (stereo not shown) [Isocycloseram]
Plutella xylostella; 0.1 ppm
  Observed Efficacy (%): 87.5%
Spodoptera litura; 10 ppm
  Observed Efficacy (%): 12.5%

## C[C@]1(COC(=O)C2CC2)[C@@H]2C[C@H](O)[C@@]3(C)Oc4cc(-c5cccnc5)oc(=O)c4[C@H](O)[C@@H]3[C@@]2(C)CC[C@@H]1OC(=O)C1CC1 [Afidopyropen]
Plutella xylostella; 0.1 ppm
  Observed Efficacy (%): 0%
Spodoptera litura; 50 ppm
  Observed Efficacy (%): 0%
Spodoptera litura; 100 ppm
  Observed Efficacy (%): 0%

## CCc1nc2cc(C)c(Oc3ccc(OC(F)(F)F)cc3)cc2c(OC(=O)OC)c1C [Flometoquin]
Plutella xylostella; 0.005 ppm
  Observed Efficacy (%): 12.5%

## O=c1c(-c2cccc(C(F)(F)F)c2)c([O-])[n+](Cc2cncnc2)c2ccccn12 [Triflumezopyrim]
Spodoptera litura; 50 ppm
  Observed Efficacy (%): 25%
Helicoverpa armigera; 50 ppm
  Observed Efficacy (%): 12.5%
Helicoverpa armigera; 100 ppm
  Observed Efficacy (%): 0%

## Abamectin
Plutella xylostella; 0.001 ppm
  Observed Efficacy (%): 12.5%
Plutella xylostella; 0.005 ppm
  Observed Efficacy (%): 25%

From US20230276804A1, “A PESTICIDALLY ACTIVE MIXTURE COMPRISING PYRAZOLOPYRIDINE ANTHRANILAMIDE COMPOUND, OXIDES OR SALTS THEREOF” (priority 2020, published 2023)
